{
  "source": "ChEMBL document CHEMBL5550084",
  "about": "“Ferroptosis and its modulators: A raising target for cancer and Alzheimer's disease” (Bioorg Med Chem, 2024)",
  "key": {"[1]": {"assay": "Growth inhibition of human BJeLR cell by Trypan blue staining based analysis", "format": "toxicity", "conditions": "BJeLR cells"}, "[2]": {"molecular_target": "T1, Cystine/glutamate transporter (Homo sapiens, UniProt Q9UPY5)", "T1 sequence (Q9UPY5 whole entry)": "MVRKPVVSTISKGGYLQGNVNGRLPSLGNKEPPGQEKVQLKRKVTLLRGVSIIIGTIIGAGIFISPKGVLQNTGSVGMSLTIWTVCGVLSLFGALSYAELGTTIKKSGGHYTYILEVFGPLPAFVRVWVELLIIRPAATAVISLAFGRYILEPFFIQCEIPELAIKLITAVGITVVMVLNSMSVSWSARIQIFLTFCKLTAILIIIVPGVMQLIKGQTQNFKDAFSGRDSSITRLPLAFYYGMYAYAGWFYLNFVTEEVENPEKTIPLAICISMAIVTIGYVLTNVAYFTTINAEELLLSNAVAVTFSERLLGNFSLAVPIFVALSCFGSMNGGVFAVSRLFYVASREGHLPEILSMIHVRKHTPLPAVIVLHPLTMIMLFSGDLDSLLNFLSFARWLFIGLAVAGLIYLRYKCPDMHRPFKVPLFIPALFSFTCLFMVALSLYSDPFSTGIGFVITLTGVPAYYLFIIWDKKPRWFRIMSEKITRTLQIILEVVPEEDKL", "assay": "Inhibition of Xc- in human HT-1080 cells assessed as decrease in glutamate release incubated for 2 hrs by Amplex red assay", "format": "cell-based"}},
  "data": [
    {"smiles": "CCOc1ccccc1-n1c(C(C)N2CCN(C(=O)COc3ccc(Cl)cc3)CC2)nc2ccccc2c1=O", "note": "(centres undefined) [ERASTIN]", "values": [
      {"measurement": "GI50", "setting": "[1]", "value": 1.7, "unit": "nM"}
    ]},
    {"smiles": "CC(C)Oc1ccc(C(=O)CN2CCN(C)CC2)cc1-n1c(CN2CCN(C(=O)COc3ccc(Cl)cc3)CC2)nc2ccccc2c1=O", "values": [
      {"measurement": "IC50", "setting": "[2]", "value": 300, "unit": "nM"},
      {"measurement": "GI50", "setting": "[1]", "value": 474, "unit": "nM"}
    ]},
    {"smiles": "CC(C)Oc1ccc(C(=O)CN2CCOCC2)cc1-n1c(CN2CCN(C(=O)COc3ccc(Cl)cc3)CC2)nc2ccccc2c1=O", "values": [
      {"measurement": "IC50", "setting": "[2]", "value": 10, "unit": "nM"},
      {"measurement": "GI50", "setting": "[1]", "value": 427, "unit": "nM"}
    ]},
    {"smiles": "CC(C)Oc1ccncc1-n1c(CN2CCN(C(=O)COc3ccc(Cl)cc3)CC2)nc2ccccc2c1=O", "values": [
      {"measurement": "GI50", "setting": "[1]", "value": "> 10", "unit": "nM"}
    ]},
    {"smiles": "CC(C)Oc1ccc(CN2CCOCC2)cc1-n1c(CN2CCN(C(=O)COc3ccc(Cl)cc3)CC2)nc2ccccc2c1=O", "values": [
      {"measurement": "GI50", "setting": "[1]", "value": 0.13, "unit": "nM"}
    ]},
    {"smiles": "CC(C)Oc1ccc(CN2CCNCC2)cc1-n1c(CN2CCN(C(=O)COc3ccc(Cl)cc3)CC2)nc2ccccc2c1=O", "values": [
      {"measurement": "GI50", "setting": "[1]", "value": 0.9, "unit": "nM"}
    ]},
    {"smiles": "CC(C)Oc1ccc(C=O)cc1-n1c(CN2CCN(C(=O)COc3ccc(Cl)cc3)CC2)nc2ccccc2c1=O", "values": [
      {"measurement": "GI50", "setting": "[1]", "value": 8, "unit": "nM"}
    ]}
  ]
}
